{"source": "patent US20080044404A1", "about": "“Annexin V for Preventing Atherothrombosis and Plaque Rupture” (priority 2004, published 2008)", "key": {"[1]": {"system": "human umbilical endothelia cells (HUVECs)", "experiment": "Annexin V binding to HUVECs after 24 hrs culture with high aPLs titer serum pre-incubated with test substance, flow cytometry", "assay_type": "cell-based", "conditions": "for Geo Mean (fluorescence) / Mean (fluorescence) / Median (fluorescence) / Peak Ch / % Gated (Annexin V positive region): file '100' 24 hrs on HUVEC; for Effect on Annexin V binding to endothelial cells: preincubation of serum known to decrease binding; for Mean % of APS, Av / Median % of APS, Av: average of three; for Mean % of APS, Av / Median % of APS, Av / Mean % of APS / Median % of APS: 24 hrs culture; for Mean % of APS / Median % of APS: single experiments", "experimental": "Cryopreserved pooled human umbilical venous endothelial cells (HUVECs) at passage 2 were purchased from Cascade Biologics, Inc. (Portland, Oreg., USA) the cultures were maintained in EGM™ phenol red-free medium (Clonetics, San Diego, Calif., USA), containing 2% of fetal bovine serum and supplements. The cells were incubated in 75 cm2 flasks (TPP, AG, Trasadingen, Switzerland) under humidified 5% CO2 in 37° C. conditions. All experiments were performed at passage 3 to 4. HUVECs were seeded at 2×10^4 cells/ml density in 12-well plates (NUNC, Inc, Naperville, Ill., USA) for flow cytometry analysis; at density of 1×10^4 cells/well/100 μl in 96-well plate (TPP) for MTT assay; at 8×10^3 cells/ml. density in 24-well plates (NUNC) for DNA fragmentation ELISA. After allowing 12-24 hours for attachment and careful washing with serum-free medium (SFM), the cells were made quiescent in SFM for at least 12 hrs prior to treatment. Heparin-preserved plasma from the study groups was added to the monolayer at concentration of 10% in SFM.\nThe cells were harvested non-enzymatically with Cell Dissociation Solution (CDS; Sigma-Aldrich, St. Louis, Mo., USA). HUVECs were carefully pooled with supernatants, to exclude selective loss of detached floating EC, and centrifuged at 1200 rpm for 7 min. After resuspension in 100 μl of Annexin V-binding buffer (Molecular Probes Inc, Eugene, Oreg., USA) samples were stained with 5 mg/ml of Annexin V-FITC (Mol. Probes) and incubated for 15 min on ice. Shortly before acquisition 1 mg/ml of propidium iodide (PI; R&DSystems Europe Ltd, Abingdon, UK) was added. Analysis was performed on a FACScan flow cytometer (BD Biosciences, San Jose, Calif., USA) equipped with CellQuest™ software. During acquisition a gate was set to exclude events smaller than 230 on linear FCS and SSC scale. For each sample 10000 events were collected.\nHeparin-preserved plasma with high capacity to inhibit Annexin V binding was added to HUVECs monolayer at concentration of 10% in SFM. After 24 hrs cells were harvested with Cell Dissociation Solution (CDS; Sigma-Aldrich, St. Louis, Mo., USA) and carefully pooled with supernatants, to exclude selective loss of detached floating cells, centrifugation at 1200 rpm for 7 min followed. After resuspension in 100 μl of annexin V-binding buffer (Molecular Probes Inc, Eugene, Oreg., USA) samples were stained with 2 μl of 5 mg/ml annexin V-FITC (Molecular Probes) and incubated for 15 min on ice. Shortly before acquisition 1 mg/ml of propidium iodide (PI; a vital dye; R&DSystems Europe Ltd, Abingdon, UK) was added. Analysis was performed as described above.\nThe frequency of HUVECs positive for Annexin V staining was determined either as percentage of annexin V^+/PI^− cells on a bivariate dot plot or percentage of Annexin V^+ cells based on a histogram. Annexin V-binding to HUVECs in the presence of serum known to decrease binding and preincubated with IVIG was determined."}, "[2]": {"experiment": "Serum binding to antigen after preincubation of serum with antigen", "conditions": "preincubation of serum with high capacity to induce decreased binding", "source_text": "Polysorp F96 microtiter immuno-plates were purchased from Nunc (Roskilde Denmark), PC-BSA (Phosphorylcholine-Bovine Serum Albumin) was purchased from Biosearch Technologies, INC (USA). Bovine serum albumin (BSA), Alkaline phosphatase conjugated goat anti-human IgG (r-chain specific), Alkaline phosphatase conjugated goat anti-human IgM (u-chain specific), PNPP(Alkaline phosphatase substrate), were obtained from Sigma (St. Louis, Mo., USA). For example, IgG and IgM antibodies to PC-BSA were determined by enzyme-linked immunosorbent assay (ELISA). Pooled serum from 17 antiphospholipid syndrome patients was used as an internal standard and tested on every plate. […] F96 microtiter polysorp plate was therefore coated with PC-BSA (10 μg/ml) 50 μl/well in PBS. Coated plates were incubated overnight at 4° C. After five washings with PBS, the plates were blocked with 2% BSA-PBS for 2 h at room temperature and washed as described above. Serum samples were diluted (1:30) in 0.2% BSA-PBS and added at 50 μl/well."}, "[3]": {"conditions": "humans; cited from earlier work"}, "[4]": {"conditions": "experimental animals; cited from earlier work"}}, "note": "Several values for one entry are separate records, joined by “and”; a condition that tells them apart may be missing. Identical values can stand only once. Like-named read-outs stand apart in the source and are kept apart here.", "data": [{"compound": "tetanus toxoid", "values": [{"measurement": "Geo Mean (fluorescence)", "setting": "[1]; all events (100.00 % gated)", "result": 47.62}, {"measurement": "Mean (fluorescence)", "setting": "[1]; all events (100.00 % gated)", "result": 155.14}, {"measurement": "Median (fluorescence)", "setting": "[1]; all events (100.00 % gated)", "result": 113.42}, {"measurement": "Peak Ch", "setting": "[1]; all events (100.00 % gated)", "result": 1}, {"measurement": "% Gated (Annexin V positive region)", "setting": "[1]; second histogram region", "result": 66.69, "unit": "%"}, {"measurement": "Geo Mean (fluorescence)", "setting": "[1]; second histogram region", "result": 173.93}, {"measurement": "Mean (fluorescence)", "setting": "[1]; second histogram region", "result": 230.12}, {"measurement": "Median (fluorescence)", "setting": "[1]; second histogram region", "result": 212.88}, {"measurement": "Peak Ch", "setting": "[1]; second histogram region", "result": 222}]}, {"compound": "C[N+](C)(C)CCOP(=O)(O)O", "note": "[PC, phosphorylcholine]", "values": [{"measurement": "Effect on Annexin V binding to endothelial cells", "setting": "[1]", "result": "no significant effect"}]}, {"compound": "phosphatidylserine", "values": [{"measurement": "Serum binding to antigen", "setting": "[2]", "result": "decreased serum binding to antigen"}, {"measurement": "Effect on Annexin V binding to endothelial cells", "setting": "[1]", "result": "restored Annexin V binding"}]}, {"compound": "lysophosphatidylcholine [Lyso PC]", "values": [{"measurement": "Serum binding to antigen", "setting": "[2]", "result": "decreased serum binding to antigen"}, {"measurement": "Mean % of APS, Av", "setting": "[1]; 10 μg/ml", "result": "150 % of APS"}, {"measurement": "Median % of APS, Av", "setting": "[1]; 10 μg/ml", "result": "146 % of APS"}, {"measurement": "Mean % of APS", "setting": "[1]; 10 μg/ml", "result": "123.6 % of APS and 156.9 % of APS and 169.5 % of APS"}, {"measurement": "Median % of APS", "setting": "[1]; 10 μg/ml", "result": "121.88 % of APS and 138.23 % of APS and 178.5 % of APS"}, {"measurement": "Mean % of APS, Av", "setting": "[1]; 100 μg/ml", "result": "156 % of APS"}, {"measurement": "Median % of APS, Av", "setting": "[1]; 100 μg/ml", "result": "155 % of APS"}, {"measurement": "Mean % of APS", "setting": "[1]; 100 μg/ml", "result": "158.1 % of APS and 114.7 % of APS and 195.12 % of APS"}, {"measurement": "Median % of APS", "setting": "[1]; 100 μg/ml", "result": "175.39 % of APS and 115.4 % of APS and 174.65 % of APS"}, {"measurement": "Geo Mean (fluorescence)", "setting": "[1]; all events (100.00 % gated)", "result": 62.95}, {"measurement": "Mean (fluorescence)", "setting": "[1]; all events (100.00 % gated)", "result": 275.37}, {"measurement": "Median (fluorescence)", "setting": "[1]; all events (100.00 % gated)", "result": 153.99}, {"measurement": "Peak Ch", "setting": "[1]; all events (100.00 % gated)", "result": 1}, {"measurement": "% Gated (Annexin V positive region)", "setting": "[1]; second histogram region", "result": 67.03, "unit": "%"}, {"measurement": "Geo Mean (fluorescence)", "setting": "[1]; second histogram region", "result": 268.96}, {"measurement": "Mean (fluorescence)", "setting": "[1]; second histogram region", "result": 408.50}, {"measurement": "Median (fluorescence)", "setting": "[1]; second histogram region", "result": 352.27}, {"measurement": "Peak Ch", "setting": "[1]; second histogram region", "result": 453}, {"measurement": "Effect on Annexin V binding to endothelial cells", "setting": "[1]", "result": "restored Annexin V binding"}]}, {"compound": "CCCCCCCCCCCCCCCCOC[C@H](COP(=O)([O-])OCC[N+](C)(C)C)OC(C)=O", "note": "[PAF]", "values": [{"measurement": "Serum binding to antigen", "setting": "[2]", "result": "decreased serum binding to antigen"}, {"measurement": "Mean % of APS, Av", "setting": "[1]; 10 μg/ml", "result": "135 % of APS"}, {"measurement": "Median % of APS, Av", "setting": "[1]; 10 μg/ml", "result": "132 % of APS"}, {"measurement": "Mean % of APS", "setting": "[1]; 10 μg/ml", "result": "100 % of APS and 155.6 % of APS and 149.8 % of APS"}, {"measurement": "Median % of APS", "setting": "[1]; 10 μg/ml", "result": "99 % of APS and 134 % of APS and 164 % of APS"}, {"measurement": "Mean % of APS, Av", "setting": "[1]; 100 μg/ml", "result": "137 % of APS"}, {"measurement": "Median % of APS, Av", "setting": "[1]; 100 μg/ml", "result": "136 % of APS"}, {"measurement": "Mean % of APS", "setting": "[1]; 100 μg/ml", "result": "151 % of APS and 122 % of APS and 139 % of APS"}, {"measurement": "Median % of APS", "setting": "[1]; 100 μg/ml", "result": "145 % of APS and 116 % of APS and 147 % of APS"}, {"measurement": "Effect on Annexin V binding to endothelial cells", "setting": "[1]", "result": "restored Annexin V binding"}]}, {"compound": "Annexin V: Annexin V protein, binds calcium and negatively charged phospholipids", "values": [{"measurement": "half-life in the circulation", "setting": "[3]", "result": "short half-life"}, {"measurement": "half-life in the circulation", "setting": "[4]", "result": "5 to 15", "unit": "min"}]}]}
